From patent US6914045B2, “Glycopeptide antibiotics” (Wyeth Holdings Corporation, priority 2001, dated 2005)
In brackets after ≈: the same amount, converted by molar mass.

Key:
Experiment in all cases: in vitro antibacterial evaluation, MIC by broth dilution
Format in all cases: cell-based
Enterococcus sp. = conditions: broth dilution, 18 hours at 35° C.
In short: (§1)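 Read-out: the lowest concentration at which the test strain fails to grow. Serial dilutions (64-0.06 μg/mL) in Muller-Hinton II […], 5×10^5 CFU/mL inoculum, NCCLS M7-A2 procedure.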

Staphylococcus sp. = conditions: broth dilution, 18 hours at 35° C.
In short: as §1

Escherichia coli = conditions: 18 hours at 35° C.
In short: as §1

- MIC Enterococcus faecalis (ATCC 29212) (Enterococcus sp.; Enterococcus faecalis (ATCC 29212)): 8 µg/mL (≈ 5.64 µM)
- MIC Enterococcus faecalis (GC 2242) (Enterococcus sp.; Enterococcus faecalis (GC 2242)): 8 µg/mL (≈ 5.64 µM)
- MIC Enterococcus faecalis (GC 4552) (Enterococcus sp.; Enterococcus faecalis (GC 4552)): 8 µg/mL (≈ 5.64 µM)
- MIC Enterococcus faecalis (ATCC 29212) (Enterococcus sp.; strain ATCC 29212): 8 µg/mL (≈ 5.64 µM)
- MIC Enterococcus faecalis (GC 2242) (Enterococcus sp.; strain GC 2242): 8 µg/mL (≈ 5.64 µM)
- MIC Enterococcus faecalis (GC 4552) (Enterococcus sp.; strain GC 4552): 8 µg/mL (≈ 5.64 µM)
- MIC Coagulase Negative Staphylococcus (GC 4537) (Staphylococcus sp.): 2 µg/mL (≈ 1.41 µM)
- MIC Coagulase Negative Staphylococcus (GC 4538) (Staphylococcus sp.): 1 µg/mL (≈ 0.704 µM)
- MIC Coagulase Negative Staphylococcus (GC 4547) (Staphylococcus sp.): 1 µg/mL (≈ 0.704 µM)
- MIC Staphylococcus aureus (ATCC 29213) (Staphylococcus sp.): 2 µg/mL (≈ 1.41 µM)
- MIC Staphylococcus aureus (GC 1131) (Staphylococcus sp.): 2 µg/mL (≈ 1.41 µM)
- MIC Staphylococcus aureus (GC 4535) (Staphylococcus sp.): 2 µg/mL (≈ 1.41 µM)
- MIC Staphylococcus aureus-SMITH (GC 4536) (Staphylococcus sp.): 2 µg/mL (≈ 1.41 µM)
- MIC Coagulase Negative Staphylococcus (GC 4537) (Staphylococcus sp.; strain GC 4537): 2 µg/mL (≈ 1.41 µM)
- MIC Coagulase Negative Staphylococcus (GC 4538) (Staphylococcus sp.; strain GC 4538): 1 µg/mL (≈ 0.704 µM)
- MIC Coagulase Negative Staphylococcus (GC 4547) (Staphylococcus sp.; strain GC 4547): 1 µg/mL (≈ 0.704 µM)
- MIC Staphylococcus aureus (ATCC 29213) (Staphylococcus sp.; strain ATCC 29213): 2 µg/mL (≈ 1.41 µM)
- MIC Staphylococcus aureus (GC 1131) (Staphylococcus sp.; strain GC 1131): 2 µg/mL (≈ 1.41 µM)
- MIC Staphylococcus aureus (GC 4535) (Staphylococcus sp.; strain GC 4535): 2 µg/mL (≈ 1.41 µM)
- MIC Staphylococcus aureus-SMITH (GC 4536) (Staphylococcus sp.; strain GC 4536): 2 µg/mL (≈ 1.41 µM)
- MIC Escherichia coli (GC 4559) (Escherichia coli; strain GC 4559): >128 µg/mL
- MIC Escherichia coli (GC 4560) (Escherichia coli; strain GC 4560): 0.5 µg/mL (≈ 0.352 µM)
SMILES: CC(c1ccccc1)C1NC(=O)CNC(=O)C(CO)NC(=O)C(C(O)C2CNC(=N)N2C2OC(CO)C(O)C(O)C2O)NC(=O)C(C(O)C2CNC(=N)N2)NC(=O)C(Cc2ccc(OC3OC(COC(=O)CCC4CCCC4)C(OC4OC(CO)C(O)C(O)C4O)C(O)C3O)cc2)NC1=O (stereo not shown) [Example 100b]
